The values that follow come from patent publication US9974832B2, “Therapeutic effects of bryostatins, bryologs, and other related substances on head trauma-induced memory impairment and brain injury” (Cognitive Research Enterprises, Inc., priority 2007, dated 2018).

The conditions of data set [1]: (−)-enantiomer; cited from earlier work.
Data set [2] concerns squamous cell carcinoma and melanoma. Conditions: used topically; cited from earlier work.
For data set [3], the target named is PKC. As to conditions: read-out: affinity for PKC, A-ring bryologs; cited from earlier work.
Data set [4] concerns head trauma-induced brain injury and memory impairment. Nature of the data set: minimal traumatic brain injury in mice, Morris Water Maze. It counts as in vivo. Conditions: treatment started one hour after head trauma. The method, then: Minimal traumatic brain injury (TBI) was produced in mice by a concussive event using a 30 g mass. One hour post trauma, the mice received 20 or 30 μg bryostatin per kg doses by intraperitoneal injection. The injections were repeated twice weekly for a total of 5 treatments. The effects on learning and memory of bryostatin treatment in treated animals was tested in the Morris Water Maze.
The platform was removed and the animals were tested for how long they searched the correct quadrant versus the incorrect quadrants. In the passive avoidance procedure the animal remembers the distinctive environment in which a mild electric shock is delivered and avoids it on a second occasion.
Minimal traumatic brain injury (TBI) was produced in mice by a concussive event using a 30 g mass. One hour post trauma, the mice received 30 μg bryostatin per kg doses by intraperitoneal injection. The injections were repeated twice weekly for a total of 5 treatments. The escape latencies in a Morris Water Maze of mice treated with bryostatin after minimal TBI were compared to animals with minimal TBI, control animals receiving no TBI or bryostatin, and animals receiving bryostatin only.
Minimal traumatic brain injury (TBI) was produced in mice by a concussive event using a 30 g mass. One hour post trauma, the mice received 20 μg bryostatin per kg doses by intraperitoneal injection. […]

The subject of data set [5] is tumor promotion. Conditions: cited from earlier work.
For data set [6] the following is noted: in vivo; cited from earlier work.
In data set [7] the test system is NCI 60 cell line screen. Conditions: cited from earlier work.
In data set [8] the test system is cyclin dependent kinase 2 (Cdk2). Conditions: at 5 ng/ml; cited from earlier work.
In data set [9] the test system is PKC. As to conditions: K562 cells; cited from earlier work.
For data set [10], the system named is murine leukemias and solid tumors. As to conditions: cited from earlier work.
Data set [11] concerns the target T1, PKCϵ (Homo sapiens, UniProt Q02156).
T1 sequence (Q02156 1-737): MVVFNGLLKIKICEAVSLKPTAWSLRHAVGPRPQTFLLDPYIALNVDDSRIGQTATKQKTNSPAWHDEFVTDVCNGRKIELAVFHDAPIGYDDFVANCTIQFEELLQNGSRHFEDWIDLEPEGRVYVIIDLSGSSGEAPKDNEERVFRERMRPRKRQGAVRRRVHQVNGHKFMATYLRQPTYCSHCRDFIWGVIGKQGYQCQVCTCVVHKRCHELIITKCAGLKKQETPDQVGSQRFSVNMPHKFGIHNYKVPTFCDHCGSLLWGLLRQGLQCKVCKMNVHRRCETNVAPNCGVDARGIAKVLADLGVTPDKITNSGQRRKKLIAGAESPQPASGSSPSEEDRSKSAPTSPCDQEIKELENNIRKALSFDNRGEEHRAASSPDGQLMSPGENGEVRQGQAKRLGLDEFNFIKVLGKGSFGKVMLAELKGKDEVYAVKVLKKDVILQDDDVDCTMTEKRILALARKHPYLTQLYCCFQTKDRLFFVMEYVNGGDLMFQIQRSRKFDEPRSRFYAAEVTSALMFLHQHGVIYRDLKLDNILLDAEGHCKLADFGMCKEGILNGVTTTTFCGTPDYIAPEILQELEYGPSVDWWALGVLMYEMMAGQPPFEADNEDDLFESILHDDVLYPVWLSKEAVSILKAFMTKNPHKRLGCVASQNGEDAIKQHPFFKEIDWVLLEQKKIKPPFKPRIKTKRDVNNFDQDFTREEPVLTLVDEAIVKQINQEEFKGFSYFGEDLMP
As to conditions: cited from earlier work.

For data set [12] the following is noted: compared with phorbol; cited from earlier work.

As to `CCCCCCCCc1ccc2c3c(c[nH]c13)C[C@@H](CO)NC(=O)[C@H](C(C)C)N2C` [Octylindolactam V], in data set [1], the metabolic stability entry is listed as “greater metabolic stability”.

As for `C/C=C(/C)C(=O)O[C@H]1C(C)=C[C@]23C(=O)[C@@H](C=C(CO)[C@@H](O)[C@]12O)[C@H]1[C@@H](C[C@H]3C)C1(C)C` [Ingenol-3-angelate], the antitumor activity entry in [2] is “possesses antitumor activity”.

Regarding `CCCCCCCC(=O)OC1C(=CC(=O)OC)CC2CC(CO)OC(=O)CC(O)CCOC(CCCc3ccc(Br)cc3)CC3CCOC(C=CC(C)(C)C1(O)O2)O3` (stereo not drawn) [bryolog 5], in [3], the Ki is 1.9 nM.

In the case of `CCCCCCCC(=O)OC1C(=CC(=O)OC)CC2CC(CO)OC(=O)CC(O)CCOC(c3ccccc3)CC3CCOC(C=CC(C)(C)C1(O)O2)O3` (stereo not drawn) [bryolog 4], the Ki in [3] was 2.3 nM.

For `CCCC=CC=CC(=O)OC1C(=CC(=O)OC)CC2CC(C(C)O)OC(=O)CC(O)CC3CC(OC(C)=O)C(C)(C)C(O)(CC4CC(=CC(=O)OC)CC(C=CC(C)(C)C1(O)O2)O4)O3` (stereo not drawn) [Bryostatin 1, bryostatin-1], the “therapeutic effect on brain injury and memory impairment induced with head trauma” value in data set [4] is “therapeutic value against brain injury and memory impairment”. In addition, the tumor promotion activity result in data set [5] was “devoid of tumor promotion activity”. Besides, in [6], the “main adverse reaction in humans” value is given as “myalgia” and the “tolerability of doses in humans” value is reported as “well tolerated in humans”.

`CC1=CC[C@H](C)C(C)(C)[C@@H]1/C=C/C(C)=C/CC[C@@]1(CO)[C@H](CCCO)/C(=C(/C)C=O)CC[C@]1(C)O` [Iripallidal]: the “GI50 (concentration required to inhibit growth by 50%)” value in data set [7] is recorded as “micromolar to nanomolar range”.

As for `C=C(C)[C@]12C[C@@H](COC(=O)c3ccccc3)[C@@]34OC5(O[C@@H]1[C@@H]3C1O[C@]1(CO)[C@@H](O)[C@@]1(O)[C@H]4[C@@H](C(C)CCCCCC[C@@H]5O)C(C)[C@@H]1OC(=O)c1ccccc1)O2` (stereo partly drawn) [Gnidimacrin], the “inhibition of Cdk2” value in [8] is reported as 100%. Further, the “concentration at which it acts as a PKC activator” value in data set [9] is “≈ 3 nM”. Besides, the “concentrations with potent antitumor activity” value in data set [10] was 0.1 to 1 nM.

Regarding `CCCCCCCC(=O)OC1C(=CC(=O)OC)CC2CC(CO)OC(=O)CC(O)CCOC(C(C)(C)C)CC3CCOC(C=CC(C)(C)C1(O)O2)O3` (stereo not drawn) [bryolog 3], the Ki in [3] is 6.5 nM.

Regarding `CCCCCC1CC1CC1CC1CCCCCCCC(=O)O` (stereo not drawn) [DCP-LA, 2-[(2-pentylcyclopropyl)methyl]cyclopropaneoctanoic acid], the “concentration of maximal effect” value in [11] is 100 nM.

Ingenol: the toxicity entry in data set [12] is “much less toxicity”.
